The source of these data is ChEMBL document CHEMBL3991601, “The target landscape of clinical kinase drugs” (Science, 2017).

The target of one assay is T1, ADP/ATP translocase 3 (Homo sapiens, UniProt P12236).
T1 sequence (P12236 whole entry): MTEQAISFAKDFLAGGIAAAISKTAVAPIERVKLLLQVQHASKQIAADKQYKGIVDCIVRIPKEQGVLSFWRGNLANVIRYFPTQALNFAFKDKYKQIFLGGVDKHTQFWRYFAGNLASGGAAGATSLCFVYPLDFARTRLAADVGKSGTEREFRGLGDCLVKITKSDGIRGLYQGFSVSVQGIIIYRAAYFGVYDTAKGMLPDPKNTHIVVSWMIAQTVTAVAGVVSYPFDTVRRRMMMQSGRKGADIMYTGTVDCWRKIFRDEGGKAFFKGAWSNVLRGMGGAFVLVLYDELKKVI

Assay [1] concerns the target Myosin light chain kinase, smooth muscle (Homo sapiens, UniProt Q15746).
Assay [2] addresses Protein-tyrosine kinase 6 (Homo sapiens, UniProt Q13882).
The next assay deals with TGF-beta receptor type-2 (Homo sapiens, UniProt P37173).
The target of assay [3] is STE20-like serine/threonine-protein kinase (Homo sapiens, UniProt Q9H2G2).
For assay [4], the target named is NADH dehydrogenase [ubiquinone] 1 alpha subcomplex subunit 13 (Homo sapiens, UniProt Q9P0J0).
Assay [5] concerns the target T2, Serine/threonine-protein kinase ICK (Homo sapiens, UniProt Q9UPZ9).
T2 sequence (Q9UPZ9 whole entry): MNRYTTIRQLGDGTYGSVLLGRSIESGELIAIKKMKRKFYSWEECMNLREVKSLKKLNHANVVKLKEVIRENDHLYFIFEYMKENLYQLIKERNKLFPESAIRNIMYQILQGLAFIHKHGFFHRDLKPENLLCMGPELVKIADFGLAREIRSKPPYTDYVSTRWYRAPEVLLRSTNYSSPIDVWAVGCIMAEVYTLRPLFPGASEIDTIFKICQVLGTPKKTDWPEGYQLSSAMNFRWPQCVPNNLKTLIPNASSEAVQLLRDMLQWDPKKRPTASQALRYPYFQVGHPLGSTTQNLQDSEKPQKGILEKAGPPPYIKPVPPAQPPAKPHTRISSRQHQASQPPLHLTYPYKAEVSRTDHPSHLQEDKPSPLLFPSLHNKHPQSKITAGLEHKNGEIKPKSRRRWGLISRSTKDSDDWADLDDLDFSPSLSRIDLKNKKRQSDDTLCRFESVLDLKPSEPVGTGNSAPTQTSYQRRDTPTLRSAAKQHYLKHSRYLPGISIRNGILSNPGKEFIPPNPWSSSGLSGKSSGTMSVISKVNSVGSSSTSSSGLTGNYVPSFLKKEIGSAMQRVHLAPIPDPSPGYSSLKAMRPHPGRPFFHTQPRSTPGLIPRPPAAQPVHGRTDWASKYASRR

A further assay addresses T3, Septin-9 (Homo sapiens, UniProt Q9UHD8).
T3 sequence (Q9UHD8 whole entry): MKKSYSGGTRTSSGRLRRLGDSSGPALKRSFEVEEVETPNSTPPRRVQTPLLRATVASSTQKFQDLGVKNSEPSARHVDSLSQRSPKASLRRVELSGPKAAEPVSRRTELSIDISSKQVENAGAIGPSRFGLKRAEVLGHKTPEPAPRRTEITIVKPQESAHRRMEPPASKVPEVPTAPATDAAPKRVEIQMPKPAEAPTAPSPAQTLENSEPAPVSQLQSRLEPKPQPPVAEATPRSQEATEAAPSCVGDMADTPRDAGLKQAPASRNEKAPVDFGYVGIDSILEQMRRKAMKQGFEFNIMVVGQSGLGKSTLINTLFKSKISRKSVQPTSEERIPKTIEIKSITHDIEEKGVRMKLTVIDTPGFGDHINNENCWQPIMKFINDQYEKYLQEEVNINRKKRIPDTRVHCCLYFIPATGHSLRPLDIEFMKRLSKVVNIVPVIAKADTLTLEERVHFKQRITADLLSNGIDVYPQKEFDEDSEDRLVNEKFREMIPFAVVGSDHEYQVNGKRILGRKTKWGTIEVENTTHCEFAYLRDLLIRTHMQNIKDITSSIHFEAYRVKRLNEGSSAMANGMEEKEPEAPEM

The target in assay [6] is T4, MAP/microtubule affinity-regulating kinase 4 (Homo sapiens, UniProt Q96L34).
T4 sequence (Q96L34 whole entry): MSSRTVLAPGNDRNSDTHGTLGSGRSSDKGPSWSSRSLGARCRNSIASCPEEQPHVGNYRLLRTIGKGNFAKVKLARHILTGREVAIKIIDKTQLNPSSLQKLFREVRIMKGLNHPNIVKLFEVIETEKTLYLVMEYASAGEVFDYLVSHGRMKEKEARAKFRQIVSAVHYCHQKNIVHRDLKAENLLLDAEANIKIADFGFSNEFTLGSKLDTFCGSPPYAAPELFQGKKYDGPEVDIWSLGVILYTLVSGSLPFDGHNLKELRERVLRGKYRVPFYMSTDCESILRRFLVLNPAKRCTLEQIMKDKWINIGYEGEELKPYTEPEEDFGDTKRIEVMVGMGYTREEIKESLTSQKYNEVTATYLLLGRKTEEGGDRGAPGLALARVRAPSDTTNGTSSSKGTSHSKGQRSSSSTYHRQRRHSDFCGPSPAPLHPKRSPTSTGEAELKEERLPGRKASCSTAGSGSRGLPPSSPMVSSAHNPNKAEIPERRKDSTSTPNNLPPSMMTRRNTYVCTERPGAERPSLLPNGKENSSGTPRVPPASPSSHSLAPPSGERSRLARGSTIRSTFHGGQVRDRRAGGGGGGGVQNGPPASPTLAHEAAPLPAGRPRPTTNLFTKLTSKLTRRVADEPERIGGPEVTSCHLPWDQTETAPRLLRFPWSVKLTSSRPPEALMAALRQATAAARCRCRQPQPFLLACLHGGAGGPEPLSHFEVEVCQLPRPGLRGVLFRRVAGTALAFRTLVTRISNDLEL

Calls of active or inactive are those of the source.
Note: in the data inactive means no Kd found up to 30 µM.

Myosin light chain kinase, smooth muscle, sequence (Q15746 whole entry): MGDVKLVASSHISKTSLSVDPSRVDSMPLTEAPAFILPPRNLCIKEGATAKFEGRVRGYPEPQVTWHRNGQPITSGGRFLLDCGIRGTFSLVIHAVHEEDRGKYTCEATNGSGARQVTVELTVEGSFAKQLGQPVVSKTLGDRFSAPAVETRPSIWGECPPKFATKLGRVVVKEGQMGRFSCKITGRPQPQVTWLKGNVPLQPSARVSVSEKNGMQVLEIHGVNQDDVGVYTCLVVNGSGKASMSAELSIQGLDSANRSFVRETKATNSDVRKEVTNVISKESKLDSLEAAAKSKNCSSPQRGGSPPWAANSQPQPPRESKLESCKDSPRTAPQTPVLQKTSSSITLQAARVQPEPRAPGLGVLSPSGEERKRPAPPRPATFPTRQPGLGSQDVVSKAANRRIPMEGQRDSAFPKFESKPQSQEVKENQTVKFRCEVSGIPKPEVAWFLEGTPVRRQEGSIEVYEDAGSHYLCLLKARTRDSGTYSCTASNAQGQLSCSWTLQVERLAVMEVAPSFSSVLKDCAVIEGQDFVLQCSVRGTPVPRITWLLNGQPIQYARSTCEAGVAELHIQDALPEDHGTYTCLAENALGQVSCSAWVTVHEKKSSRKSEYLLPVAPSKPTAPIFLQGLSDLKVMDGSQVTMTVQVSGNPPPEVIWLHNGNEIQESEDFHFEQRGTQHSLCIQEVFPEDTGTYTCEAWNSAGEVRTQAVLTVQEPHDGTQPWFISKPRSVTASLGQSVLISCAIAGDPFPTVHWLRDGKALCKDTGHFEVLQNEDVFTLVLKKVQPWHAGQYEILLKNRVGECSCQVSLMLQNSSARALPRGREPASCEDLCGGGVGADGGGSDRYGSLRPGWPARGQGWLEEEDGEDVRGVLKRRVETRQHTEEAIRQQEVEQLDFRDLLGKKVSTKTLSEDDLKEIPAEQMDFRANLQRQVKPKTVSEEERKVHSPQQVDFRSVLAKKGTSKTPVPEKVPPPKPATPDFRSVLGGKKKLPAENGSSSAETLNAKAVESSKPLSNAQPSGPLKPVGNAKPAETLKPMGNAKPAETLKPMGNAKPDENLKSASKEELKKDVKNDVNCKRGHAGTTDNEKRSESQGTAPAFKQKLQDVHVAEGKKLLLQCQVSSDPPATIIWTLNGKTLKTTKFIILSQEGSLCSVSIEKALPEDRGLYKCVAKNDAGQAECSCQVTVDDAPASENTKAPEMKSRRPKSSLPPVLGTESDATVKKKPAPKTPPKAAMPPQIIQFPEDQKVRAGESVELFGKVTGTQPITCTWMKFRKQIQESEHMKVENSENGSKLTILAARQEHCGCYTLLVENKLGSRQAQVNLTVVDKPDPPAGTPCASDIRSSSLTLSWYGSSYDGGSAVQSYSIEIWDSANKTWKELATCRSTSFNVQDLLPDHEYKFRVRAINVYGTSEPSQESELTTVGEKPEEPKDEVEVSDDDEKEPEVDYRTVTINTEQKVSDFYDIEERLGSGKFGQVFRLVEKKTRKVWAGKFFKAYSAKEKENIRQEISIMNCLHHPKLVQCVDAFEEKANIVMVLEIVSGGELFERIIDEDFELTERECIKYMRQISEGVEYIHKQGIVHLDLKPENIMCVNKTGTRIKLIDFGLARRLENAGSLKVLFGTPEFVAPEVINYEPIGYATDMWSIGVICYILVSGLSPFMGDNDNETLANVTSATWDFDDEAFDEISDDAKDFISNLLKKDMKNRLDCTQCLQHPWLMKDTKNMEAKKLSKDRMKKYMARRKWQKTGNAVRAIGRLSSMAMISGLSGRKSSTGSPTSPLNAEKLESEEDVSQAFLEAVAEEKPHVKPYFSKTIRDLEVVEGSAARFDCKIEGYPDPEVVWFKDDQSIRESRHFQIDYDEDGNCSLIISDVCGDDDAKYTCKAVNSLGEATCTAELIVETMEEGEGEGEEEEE
NADH dehydrogenase [ubiquinone] 1 alpha subcomplex subunit 13, sequence (Q9P0J0 whole entry, one chain of several): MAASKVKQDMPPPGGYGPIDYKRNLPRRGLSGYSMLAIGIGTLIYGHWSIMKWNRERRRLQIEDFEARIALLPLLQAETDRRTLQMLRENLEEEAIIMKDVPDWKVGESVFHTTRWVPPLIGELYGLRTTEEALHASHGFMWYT
STE20-like serine/threonine-protein kinase, sequence (Q9H2G2 whole entry): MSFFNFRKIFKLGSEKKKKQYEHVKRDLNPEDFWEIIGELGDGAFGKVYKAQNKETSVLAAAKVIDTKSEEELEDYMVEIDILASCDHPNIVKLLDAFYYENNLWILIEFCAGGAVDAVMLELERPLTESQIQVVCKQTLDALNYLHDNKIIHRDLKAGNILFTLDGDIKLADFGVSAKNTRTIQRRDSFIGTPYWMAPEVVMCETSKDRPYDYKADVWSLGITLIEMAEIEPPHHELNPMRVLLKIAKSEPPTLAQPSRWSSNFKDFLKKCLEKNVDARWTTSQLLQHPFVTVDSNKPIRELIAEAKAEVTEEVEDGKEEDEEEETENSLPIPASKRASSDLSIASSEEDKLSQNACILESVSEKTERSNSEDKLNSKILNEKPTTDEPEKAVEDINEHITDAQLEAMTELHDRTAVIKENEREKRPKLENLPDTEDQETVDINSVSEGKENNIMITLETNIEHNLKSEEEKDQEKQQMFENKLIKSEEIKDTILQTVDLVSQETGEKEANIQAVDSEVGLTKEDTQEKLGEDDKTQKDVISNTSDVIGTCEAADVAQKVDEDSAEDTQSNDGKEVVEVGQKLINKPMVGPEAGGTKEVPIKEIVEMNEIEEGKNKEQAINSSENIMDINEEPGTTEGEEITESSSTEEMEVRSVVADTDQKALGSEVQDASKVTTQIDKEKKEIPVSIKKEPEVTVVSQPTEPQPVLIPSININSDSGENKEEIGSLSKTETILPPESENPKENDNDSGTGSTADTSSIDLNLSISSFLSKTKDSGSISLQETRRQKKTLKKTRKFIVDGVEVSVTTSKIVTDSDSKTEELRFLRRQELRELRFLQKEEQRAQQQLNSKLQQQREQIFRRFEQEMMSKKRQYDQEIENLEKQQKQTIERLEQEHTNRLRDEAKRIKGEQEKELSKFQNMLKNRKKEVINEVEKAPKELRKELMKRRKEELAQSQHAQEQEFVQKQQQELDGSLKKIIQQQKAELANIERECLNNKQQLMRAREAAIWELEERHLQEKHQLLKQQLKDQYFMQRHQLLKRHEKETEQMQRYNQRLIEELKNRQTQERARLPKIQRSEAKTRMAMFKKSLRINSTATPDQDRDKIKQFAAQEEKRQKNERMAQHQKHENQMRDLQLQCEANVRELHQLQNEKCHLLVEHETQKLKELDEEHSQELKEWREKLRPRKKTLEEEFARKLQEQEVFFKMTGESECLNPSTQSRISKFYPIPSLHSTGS
TGF-beta receptor type-2, sequence (P37173 whole entry): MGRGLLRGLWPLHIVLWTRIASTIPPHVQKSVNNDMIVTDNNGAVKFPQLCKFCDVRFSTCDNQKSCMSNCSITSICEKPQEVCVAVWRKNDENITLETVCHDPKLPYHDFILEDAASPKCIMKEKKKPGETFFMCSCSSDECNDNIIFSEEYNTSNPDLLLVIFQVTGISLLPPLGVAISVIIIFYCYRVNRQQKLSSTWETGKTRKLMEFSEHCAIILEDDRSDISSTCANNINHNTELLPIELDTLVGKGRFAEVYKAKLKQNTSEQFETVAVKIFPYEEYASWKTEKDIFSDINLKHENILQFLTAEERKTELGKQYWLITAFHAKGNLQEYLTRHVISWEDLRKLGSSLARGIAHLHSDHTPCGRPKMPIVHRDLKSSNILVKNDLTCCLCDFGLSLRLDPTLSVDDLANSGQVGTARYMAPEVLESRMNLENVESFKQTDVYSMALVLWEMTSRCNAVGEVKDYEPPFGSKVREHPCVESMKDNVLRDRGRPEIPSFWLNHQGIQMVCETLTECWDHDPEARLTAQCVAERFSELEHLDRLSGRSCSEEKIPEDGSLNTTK
Protein-tyrosine kinase 6, sequence (Q13882 whole entry): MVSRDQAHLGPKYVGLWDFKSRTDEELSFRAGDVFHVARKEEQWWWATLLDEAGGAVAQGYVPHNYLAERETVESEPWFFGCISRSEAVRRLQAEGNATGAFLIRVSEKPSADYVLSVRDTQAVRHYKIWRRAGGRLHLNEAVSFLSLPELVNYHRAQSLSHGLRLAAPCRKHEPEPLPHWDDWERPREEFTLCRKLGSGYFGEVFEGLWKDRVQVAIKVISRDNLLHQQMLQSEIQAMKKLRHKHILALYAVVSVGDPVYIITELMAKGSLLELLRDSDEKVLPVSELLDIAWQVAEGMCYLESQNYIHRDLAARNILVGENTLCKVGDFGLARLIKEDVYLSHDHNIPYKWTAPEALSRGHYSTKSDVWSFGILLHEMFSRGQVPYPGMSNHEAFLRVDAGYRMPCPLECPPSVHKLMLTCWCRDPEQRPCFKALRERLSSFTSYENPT

As for `C[C@@H](Oc1cc(C(=O)Nc2ccc(C(=O)N3CCN(C)CC3)cc2)nnc1N)c1c(Cl)ccc(F)c1Cl`, the Kd (on ADP/ATP translocase 3; in assay [1]; in [2]; at TGF-beta receptor type-2; in assay [3]; in [4]) was > 30 µM (inactive) each time.

As for `C[C@H]1CNCCCN1S(=O)(=O)c1cccc2cncc(F)c12`, the Kd (in assay [5]; on ADP/ATP translocase 3; in [1]; in assay [2]; at Septin-9; in assay [3]) was > 30 µM (inactive) throughout. The Kd in assay [4] is > 30 µM (inactive).

Regarding `CCNC(=O)C#Cc1ccc2c(c1)NC(=O)/C2=C(\Nc1ccc(CN(C)C)cc1)c1ccccc1`, the Kd (at ADP/ATP translocase 3; in assay [1]; in [2]; at Septin-9; in assay [6]; at TGF-beta receptor type-2) was > 30 µM (inactive) each time. The results for the Kd in assay [3] and in assay [4] were 1.49 µM (active) and > 30 µM (inactive), respectively.

Take `COc1cc(Nc2ncc3c(n2)-c2ccc(Cl)cc2C(c2c(F)cccc2OC)=NC3)ccc1C(=O)O` [ALISERTIB]: the Kd (in assay [5]; on ADP/ATP translocase 3; in [1]; at Septin-9; in [6]; on TGF-beta receptor type-2) was > 30 µM (inactive) throughout. Also, the Kd in assay [4] was determined as 3.92 µM.

For the compound `CNC(=O)c1ccccc1Sc1ccc2c(/C=C/c3ccccn3)n[nH]c2c1` [AXITINIB], the Kd (on ADP/ATP translocase 3; on Septin-9; in [4]) was > 30 µM (inactive) each time.

For `COc1cc([C@@H]2c3cc4c(cc3[C@H](O)[C@H]3COC(=O)[C@@H]23)OCO4)cc(OC)c1OC` [AXL-1717], the Kd (in [5]; at ADP/ATP translocase 3; in [1]; in assay [2]; at Septin-9; at TGF-beta receptor type-2) was > 30 µM (inactive) in each case. For the same compound, the Kd in assay [3] and in [4] was > 30 µM (inactive) each time.

As to `Cn1cc(C2=C(c3cn(C4CCN(Cc5ccccn5)CC4)c4ccccc34)C(=O)NC2=O)c2ccccc21` [ENZASTAURIN], the Kd (at ADP/ATP translocase 3; at Septin-9; in assay [4]) was > 30 µM (inactive) each time.

`C[C@@H](Oc1cc(-n2cnc3ccc(CN4CCN(C)CC4)cc32)sc1C(N)=O)c1ccccc1C(F)(F)F` [GSK-461364]: the Kd (on ADP/ATP translocase 3; on Septin-9; in assay [4]) was > 30 µM (inactive) each time.

For `CN(C[C@@H]1COCCO1)S(=O)(=O)Nc1ccc2ccc3ncc(-c4cnn(C)c4)cc3c(=O)c2c1` [MK-2461], the Kd (on ADP/ATP translocase 3; in assay [1]; in assay [2]; on Septin-9; at TGF-beta receptor type-2; in assay [3]) was > 30 µM (inactive) throughout. In addition, the Kd in assay [4] is > 30 µM (inactive).

On to `Cc1[nH]c(/C=C2\C(=O)Nc3ccccc32)c(C)c1CCC(=O)O` [ORANTINIB], for which the Kd (on ADP/ATP translocase 3; in assay [1]; on Septin-9; at TGF-beta receptor type-2; in assay [4]) was > 30 µM (inactive) throughout.

For the compound `NC(=O)c1c(OCc2c(F)cc(Br)cc2F)nsc1NC(=O)NCCCCN1CCCC1` [OSI-632], the Kd (in assay [5]; at ADP/ATP translocase 3; in [1]; on Septin-9; in [6]; in [4]) was > 30 µM (inactive) each time.

For `CCCCCCCCCCCCCCCCCCOP(=O)([O-])OC1CC[N+](C)(C)CC1` [PERIFOSINE], the Kd (in [5]; on ADP/ATP translocase 3; in assay [1]; in assay [2]; on Septin-9; in assay [3]) was > 30 µM (inactive) throughout. For the same compound, the Kd in assay [4] was > 30 µM (inactive).

As for `CC(=O)NCC(=O)N1[C@@H]2CC[C@H]1c1ccc(Nc3ncc(C(F)(F)F)c(NC4CCC4)n3)cc12` [PF-03814735], the Kd in assay [5] was > 30 µM (inactive); at ADP/ATP translocase 3 it was > 30 µM (inactive); in [1] it was > 30 µM (inactive); at Septin-9, > 30 µM (inactive); in assay [6], 0.009 µM (active); at TGF-beta receptor type-2 it was > 30 µM (inactive).

For the compound `CNC(=O)c1cc(Oc2ccc(NC(=O)Nc3cc(C(C)(C)C)nn3-c3ccc4ncccc4c3)c(F)c2)ccn1` [REBASTINIB], the Kd is > 30 µM (inactive) in [5]; > 30 µM (inactive) on ADP/ATP translocase 3; 2.18 µM (active) in assay [1]; > 30 µM (inactive) on Septin-9; > 30 µM (inactive) in [6]; > 30 µM (inactive) at TGF-beta receptor type-2. The Kd in assay [3] and in assay [4] was > 30 µM (inactive) throughout.

Turning to `O=C(NOCCO)c1cc(CN2OCCCC2=O)c(F)c(F)c1Nc1ccc(I)cc1F` [RO-4987655], the Kd (at ADP/ATP translocase 3; on Septin-9; in assay [4]) was > 30 µM (inactive) in each case.

Take `N#CC[C@H](C1CCCC1)n1cc(-c2ncnc3[nH]ccc23)cn1` [RUXOLITINIB]: the Kd (on ADP/ATP translocase 3; at Septin-9; in assay [4]) was > 30 µM (inactive) throughout.

For the compound `CN1C/C=C/CCOc2cccc(c2)-c2ccnc(n2)Nc2cccc(c2)C1` [ZOTIRACICLIB], the Kd (in assay [5]; at ADP/ATP translocase 3; in assay [1]; in assay [2]; at Septin-9; at TGF-beta receptor type-2) was > 30 µM (inactive) in each case. Also, the Kd in assay [3] was 6.37 µM (active); in assay [4], > 30 µM (inactive).
